DC50 data for one compound are collected here from patent US20240108634A1, “COMPOSITIONS AND METHODS FOR INHIBITING YAP” (The United States Government as represented by the …, priority 2021, published 2024).

In the experiment the target is T1, total YAP (Homo sapiens, UniProt P46937).
T1 construct: endogenous in cells; host or cells: LN229
As to the kind of experiment: Total YAP ELISA in GBM cells. In kind it is cell-based. The method, then: Levels of total YAP were determined via ELISA. […] Immunoprecipitates were immunoblotted for the indicated proteins. […] Cells were treated with the indicated concentrations of inhibitor for 18 h and mRNA extracted for real time RT-PCR analyses. Measurements were performed in quadruplicate and means and+S.D. are shown. […] Cells were treated with (+) or without (−) NSC682769 (100 nM, 18 h) and harvested and separated into cytoplasmic and nuclear cellular fractions. Cytoplasmic versus nuclear material was subsequently immunoblotted for the indicated proteins. […] Values in top right corner of panels correspond to the percentage of nuclear localized YAP. Cells were grown on coverslips and treated with NSC682769. Cells were permeabilized and stained using primary antibody to YAP1 and FITC-conjugated secondary. Nuclei were stained with DAPI. Scale bar, 20 μm.
Surface plasmon resonance (SPR), ELISA, YAP-TEAD reporter activity, cellular fractionation, and immunofluorescence analyses. SPR experiments were carried out on a Nicoya OpenSPR™ instrument using immobilized YAP on a carboxyl-coated sensor. Binding was observed as the change in response units (RU) as analyte was injected at a flow rate of 10 μl/min at 25° C. TraceDrawer™ was used for kinetic analyses. The PathScan® total-YAP ELISA kit was obtained from Cell Signaling and used according to the manufacturer's instructions. YAP-TEAD reporter activity was determined as previously described (Kim N G, Gumbiner B M (2015) J Cell Biol 210: 503-515). HOP-flash contains multiple copies of wild-type TEAD-binding sites with a minimal promoter upstream of a luciferase reporter gene. Luciferase activity was measured via a luciferase assay system (Promega). Nuclear-cytoplasmic fractionation was performed according to Dignam et al. (Dignam J D, et al. (1983) Nucleic Acids Res 11: 1475-1489). Briefly, the buffers used were kept on ice and centrifugations were done at 4° C. with soft braking. After a single wash with PBS, cells were scraped with PBS (containing 1 mM DTT and 1× protease inhibitor) and harvested by centrifugation at 1000×g for 15 min. The cell pellet was gently resuspended with five times the volume of pellet with buffer A (10 mM HEPES, pH 7.9, 1.5 mM MgCl2, 10 mM KCl, 0.5 mM DTT, and 1× protease inhibitor) and incubated on ice for 15 min, followed by homogenization (Wheaton). Cell lysis was monitored by trypan blue staining. The cell lysate was spun at 1000×g for 5 min to collect the pellet as the nuclear fraction and the supernatant as the cytoplasmic fraction. […]

Like-named read-outs stand apart in the source and are kept apart here.

T1 sequence (P46937 whole entry): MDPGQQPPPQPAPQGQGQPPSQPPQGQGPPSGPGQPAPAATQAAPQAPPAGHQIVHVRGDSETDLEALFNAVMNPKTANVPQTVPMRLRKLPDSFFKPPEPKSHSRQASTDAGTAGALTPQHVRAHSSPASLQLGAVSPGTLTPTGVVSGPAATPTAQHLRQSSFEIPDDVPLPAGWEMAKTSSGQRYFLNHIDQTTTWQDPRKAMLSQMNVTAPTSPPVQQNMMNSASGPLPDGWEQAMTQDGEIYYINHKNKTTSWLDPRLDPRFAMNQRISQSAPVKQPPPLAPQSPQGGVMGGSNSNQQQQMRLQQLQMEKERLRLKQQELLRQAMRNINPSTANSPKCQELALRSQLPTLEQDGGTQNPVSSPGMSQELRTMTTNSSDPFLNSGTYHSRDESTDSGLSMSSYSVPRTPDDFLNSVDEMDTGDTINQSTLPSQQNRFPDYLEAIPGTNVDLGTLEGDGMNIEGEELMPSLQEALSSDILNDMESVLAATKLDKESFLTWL

On to `COc1ccc(-c2cc(-c3ccccc3)nc3c2CC(=O)Nc2ccccc2-3)cc1OC` [NSC682769], for which the DC50 reads like this: (GBM39 cells, read-out: IC50, inhibition of total YAP (ELISA)) 5.1 nM; (LN229 cells, read-out: IC50, inhibition of total YAP (ELISA)) 11.8 nM; (LN229 cells, read-out: IC50 for YAP (ELISA)) 11.8 nM; (patient-derived GBM39 cells, read-out: IC50 for YAP (ELISA)) 5.1 nM.
